Tests used:
[1] = system: patients treated with paclitaxel; settings: paclitaxel dose 135 mg/m^2; cited from earlier work
[2] = system: paclitaxel-induced mechanical allodynia; assay: Electronic Von Frey (Dynamic Plantar Aesthesiometer), paclitaxel-induced mechanical allodynia in mice; type: in vivo, CD-1 mice
Protocol: (§1) Experiments were performed in CD-1 mice (Charles River, U.S.A.) with at least n=10/experimental group. […] Control animals received the same volume of solvent (a mixture of ethanol and cremophor EL)
(§2) Mechanical allodynia was evaluated with an electronically driven Von Frey filament (Dynamic Plantar. Aesthesiorneter, Ugo Basile, Varese, Italy) as previously described (Nieto et al., Pain, 2008, 137(3), 520-31), and cold allodynia was evaluated using the acetone drop method (Nieto et al., Pain, 2008, 137(3), 520-31). […] In addition, in order to study the influence of the sigma 1 receptor in this process the difference in development of allodynia was determined using wild-type mice and sigma 1-receptor knock-out-mice.
Therefore, the cumulative dose was 10 mg/kg per mouse. In the control group the vehicle of paclitaxel was administered following the same schedule.
Compound 63 was dissolved in normal saline just before administration and applied at doses of 8, 16, 32 or 64 mg/kg subcutaneously.
The effects of Compound 63 on paclitaxel-induced neuropathic pain were examined in two different ways. […] The response of the animals to the different nociceptive stimuli was tested subsequently during 2-4 weeks, depending on the test (see below), without any additional treatment. Each animal was tested only in one nociceptive model. To test the effect of compound 63 on the expression of paclitaxel-induced pain, a single compound 63 injection was performed on day 10, a day of maximum expression of mechanical allodynia or cold aliodynia (see figures for details). Each animal received only one dose of compound 63 and was tested in only one nociceptive model.
Procedure for assessment of mechanical allodynia. To assess mechanical allodynia, paw withdrawal thresholds were measured using a Dynamic Plantar Aesthesiometer (Ugo Basile, Italy). The electronic Von Frey device employs a single nonflexible filament which applies a progressively increasing force (from 0 to 10 g) against the plantar surface of the hind paw over a 20 a period. […] The day of the experiment, mice were placed individually in test compartments (9×9×14 cm) with a wire mesh bottom and allowed to acclimatize to them for 2 h. After habituation, each mouse was tested three times alternately in each hind paw.
On that day, paw withdrawal latency was recorded immediately before (time 0) and at several times (30, 60, 90, 120 and 180 min) after the injection of compound 63 or saline.

[3] = system: paclitaxel-induced cold allodynia; assay: Acetone test, paclitaxel-induced cold allodynia in mice; type: in vivo, CD-1 mice
Protocol: as §1, §2
Therefore, the cumulative dose was 10 mg/kg per mouse. […]
The response of the animals to the different nociceptive stimuli was tested subsequently during 2-4 weeks, depending on the test (see below), without any additional treatment. Each animal was tested only in one nociceptive model. […] Each animal received only one dose of compound 63 and was tested in only one nociceptive model.
Procedure for assessment of cold allodynis. Cold allodynia was tested as previously described by Nieto et al., Pain, 2008, 137(3), 520-31, by gently touching the plantar skin of the hind paws with an acetone bubble formed with a syringe connected to a thin polyethylene tube. The mice were housed and habituated for 30 min in transparent plastic boxes (7×7×13 cm) with a floor made of wire mesh. After the adaptation period, acetone was applied alternately three times to each paw at intervals of 30 s, and the duration of licking or biting were recorded. A small mirror was placed behind the chambers to allow clear observation of the paws. The time spent licking or biting the paw was recorded by a stopwatch and represented as the cumulative time of licking/biting in the six measurements. Since licking persisting more than 10 s in the experiments was very unusual, a cut-off time of 10 s was used for each trial.
Therefore, the day 10, after the habituation period to the apparatus, baseline latencies were recorded, 30 min later compound 63 or saline was injected s.c. and paw withdrawal latencies were assessed again 60, 120 and 180 minutes after the injection.
(§3) On that day, duration of hind paw licking/biting was recorded immediately before (time 0) and at several times (60, 120 and 180 min) after the injection of compound 63 or saline.
as §3

[4] = system: Oxaliplatin-induced cold allodynia; assay: Acetone test, chronic model of oxaliplatin-induced neuropathy in rats; type: in vivo, Sprague-Dawley rats; settings: for decrease in the reaction time of paw withdrawal as compared to the HPMC/distilled water-treated group: oxaliplatin 3 mg/kg i.p. 3 times a week + 0.5% HPMC; for reaction time of paw withdrawal (acetone test), curative treatment: throughout the study
Protocol: Sixty male Sprague-Dawley rats (CERJ, France), weighing 136-169 g at the beginning of the experimental phase (first administration of compounds on D-2), were used. Rats were housed in a temperature (19.5° C.-24.5° C.) and relative humidity (45%-65%) controlled room with a 12 h—light/dark cycle, with ad libitum access to standard pelleted laboratory chow and water throughout the study.
All treatments were administered in a coded order when it is possible.
Animals were tested 2 times during treatment with compound 63 (i.e. D8 and D15) and once 24 h after completion of treatment with compound 63 (i.e. D16).
During the testing days (i.e. D8, D15), compound 63 and 0.5% HPMC were administered 30 min before the test.
Cold allodynia was assessed by measuring the responses to thermal non-nocic ptive stimulation (acetone test) on D8, D15 and D16.
Cold allodynia was assessed using the acetone test. In this test, latency of hindpaw withdrawal was measured after application of a drop of acetone to the plantar surface of both hindpaws (reaction time) and the intensity of tne response was scored (cold score).
Reaction time to the cooling effect of acetone was measured within 20 sec (cut-off) after acetone application. Responses to acetone were also graded to the following 4-point scale: 0 (no response); 1 (quick withdrawal, flick of the paw); 2 (prolonged withdrawal or marked flicking of the paw); 3 (repeated flicking of the paw with licking or biting).
For each experimental group, the results were expressed as: • The reaction time defined as the time expressed in sec required to elicit paw reaction (mean of 6 measures for each rat together±SEM). • The cumulative cold score defined as the sum of the 6 scores for each rat together±SEM. The minimum score being 0 (no response to any of the 6 trials) and the maximum possible score being 18 (repeated flicking and licking or biting of paws on each of the six trials).
Statistical significance between the treated groups and the vehicle-treated group was determined by a Two-way Repeated Measures ANOVA on Ranks followed, when the F value is significant, by an appropriate post-hoc comparison (Bonferroni's test sing SigmaStet software. The significance level was p<0.05. Statistical analyses were done using SigmaStet software.

[5] = system: Cisplatin-induced mechanical allodynia; type: in vivo, Wistar rats; settings: rats
Protocol: Male Wistar rats (250-300 g) were obtained from Harlan-lberica (Barcelona, Spain). Upon arrival to our laboratory, animals were stored in standard transparent cages (40×28×25 cm) in environmentally controlled conditions (temperature=20° C,; humidity=60%) with a 12 h light/12 h dark cycle (lights on between 08:00 and 20:00 h). Animals were allowed free access to tap water and standard laboratory rat chow (Harlan-lberica, Barcelona, Spain).
Prior to the experiment, rats were habituated to isolation. Rats received intraperitoneal injections one day per week for 5 weeks of cisplatin (1 mg/kg)+vehicle (control group for acute treatment) or cisplatin (1 mg/kg)+compound 63 (25 mg/kg). The last week (day 36) control group received an acute administration of 64 mg/kg of compound 63.
Mechanical allodynia was assessed before cisplatin administration (basal) and at the end of each experimental week (w1, w2, w3, w4). For the acute evaluation of compound 63 (w5), the mechanical allodynia was assessed 50 minutes after drug administration. On those days, rats were placed individually on an elevated iron mesh in a clear plastic cage and were allowed to adapt to the testing environment for at least 10 min. Habituation to this environment was also performed on the two days before assessment. […] Only robust and immediate withdrawal responses from the stimulus were recorded. […]

[6] = paclitaxel 2 mg/kg i.p. during 5 days
[7] = paclitaxel 2 mg/kg i.p. once daily during 5 days, mice
[8] = 0.5% HPMC/Oxaliplatin-treated group, D8
[9] = 0.5% HPMC/Oxaliplatin-treated group, D15
[10] = 0.5% HPMC/Oxaliplatin-treated group, D16

For `CC(=O)O[C@H]1C(=O)[C@@]2(C)[C@H]([C@H](OC(=O)c3ccccc3)[C@]3(O)C[C@H](OC(=O)[C@H](O)[C@@H](NC(=O)c4ccccc4)c4ccccc4)C(C)=C1C3(C)C)[C@]1(OC(C)=O)CO[C@@H]1C[C@@H]2O` [Paclitaxel], the “patients progressing to dose-limiting neurotoxicity” value [1] is listed as 0%, the “animals showing a reduction of the mechanical threshold” value [2, 6] is listed as 96% and the “non-responder animals (mechanical threshold on day 10 not lower than pretreatment)” value [2, 6] is listed as “about 4%”. The “induction of mechanical allodynia (threshold force for paw withdrawal, Von Frey test)” value ([2]; paclitaxel 2 mg/kg i.p. during 5 days, day 10) was “induced mechanical allodynia”, the “animals with significantly increased time licking/biting the stimulated paw (paclitaxel-responder animals)” value [3, 7] was 67% and the “paclitaxel-treated animals that did not show cold allodynia” value [3, 7] was 33%.

In the case of `O=C1[O][Pt]2([NH][C@@H]3CCCC[C@H]3[NH]2)[O]C1=O` [Oxaliplatin, reference compound], the “cumulative cold score (acetone test)” value [4, 8] is reported as 5.0±0.8, the “reaction time of paw withdrawal (acetone test)” value [4, 8] is reported as 14.7 ± 0.9 s and the “cumulative cold score (acetone test)” value [4, 9] is reported as 7.0±1.2. For the same compound, the “reaction time of paw withdrawal (acetone test)” value [4, 9] was 11.5 ± 1.6 s, the “cumulative cold score (acetone test)” value [4, 10] was 6.7±0.9 and the “reaction time of paw withdrawal (acetone test)” value [4, 10] was 11.5 ± 0.9 s. For the same compound, the “decrease in the reaction time of paw withdrawal as compared to the HPMC/distilled water-treated group” value ([4]; D8) was −19%, the “decrease in the reaction time of paw withdrawal as compared to the HPMC/distilled water-treated group” value ([4]; D15) was −37% and the “decrease in the reaction time of paw withdrawal as compared to the HPMC/distilled water-treated group” value ([4]; D16) was −36%.

In the case of `Cc1cc(OCCN2CCOCC2)nn1-c1ccc2ccccc2c1` [Compound 63, 4-{2-[5-Methyl-1-(naphthalen-2-yl)-1H-pyrazol-3-yloxy]ethyl}morpholine], the “von Frey pressure response, acute treatment” value ([5]; 64 mg/kg on week 5, 50 minutes before the test, cisplatin 1 mg/kg once a week for 5 weeks) is reported as “reverted the effect induced by cisplatin to basal levels”, the “development of mechanical allodynia, preventive treatment” value ([5]; coadministration of 25 mg/kg twice a day, one day per week, same days as cisplatin 1 mg/kg) is reported as “prevented the development of mechanical allodynia by cisplatin” and the “reaction time of paw withdrawal (acetone test), curative treatment” value ([4]; 20 mg/kg i.p. daily D8-D15) is reported as “low effect”. For the same compound, the “cumulative cold score (acetone test), curative treatment” value ([4]; 40 mg/kg i.p. daily D8-D15) was “intermediate effect”, the “reaction time of paw withdrawal (acetone test), curative treatment” value ([4]; 40 mg/kg i.p. daily D8-D15) was “intermediate effect” and the “reaction time of paw withdrawal (acetone test), preventive treatment” value ([4]; 40 mg/kg i.p. twice a day from D-2 to D15, oxaliplatin 3 mg/kg i.p., rats) was “induced a beneficial effect”. For the same compound, the “cumulative cold score (acetone test)” value ([4]; curative, 20 mg/kg i.p., D8) was 4.3±0.6, the “cumulative cold score (acetone test)” value ([4]; curative, 80 mg/kg i.p. daily D8-D15, D15) was 1.8±0.3 and the “reaction time of paw withdrawal (acetone test)” value ([4]; curative, 80 mg/kg i.p. daily D8-D15, D15, oxaliplatin 3 mg/kg i.p., rats) was 17.5 ± 0.5 s. For the same compound, the “reaction time of paw withdrawal (acetone test)” value ([4]; curative, 80 mg/kg i.p. daily D8-D15, D16 (24 h after last dose), oxaliplatin 3 mg/kg i.p., rats) was 15.5 ± 1.0 s, the “cumulative cold score (acetone test)” value ([4]; curative, 80 mg/kg i.p. daily D8-D15, D16, 24 hours after the last injection) was 3.1±0.6 and the “reaction time of paw withdrawal (acetone test)” value ([4]; curative, 80 mg/kg i.p. daily from D8, D8, oxaliplatin 3 mg/kg i.p., rats) was 19.1 ± 0.3 s. The “cumulative cold score (acetone test)” value ([4]; curative, 80 mg/kg i.p., D8) was 1.0±0.4, the “cumulative cold score (acetone test)” value ([4]; preventive, 40 mg/kg i.p. twice a day D-2 to D15, D8) was 2.3±0.6 and the “cumulative cold score (acetone test)” value ([4]; preventive, 40 mg/kg i.p. twice a day D-2 to D15, D15) was 3.0±0.6. The “cumulative cold score (acetone test)” value ([4]; preventive, 40 mg/kg i.p. twice a day D-2 to D15, D16) was 3.5±0.7, the “mechanical response of control (paclitaxel-vehicle treated) animals” value ([2]; 64 mg/kg s.c. single injection on day 10 after first paclitaxel-vehicle injection) was “did not affect the mechanical response” and the “expression of mechanical allodynia induced by paclitaxel (threshold force for hind paw withdrawal)” value ([2]; 64 mg/kg s.c. single injection on day 10 after paclitaxel 2 mg/kg i.p. days 1-5) was “inhibited the expression of mechanical aliodynia induced by paclitaxel”. For the same compound, the “response of the animals to acetone, co-administration with paclitaxel-vehicle” value ([3]; 64 mg/kg s.c. 30 min before each paclitaxel-vehicle injection, days 1-5, vs paclitaxel-vehicle + saline) was “did not significantly modify the response of the animals to acetone”, the “response to acetone of control (paclitaxel-vehicle treated) animals” value ([3]; 64 mg/kg s.c. single injection on day 10, paclitaxel-vehicle treated mice) was “did not afex: the response to acetone” and the “development of cold allodynia induced by paclitaxel (acetone test)” value ([3]; co-administration: 64 mg/kg s.c. 30 min before each paclitaxel 2 mg/kg i.p. injection, days 1-5, mice) was “inhibited the development of cold allodynia induced by paclitaxel”. For the same compound, the “expression of paclitaxel-induced cold allodynia (duration of hind paw licking/biting, acetone test)” value ([3]; single s.c. injection 32-128 mg/kg on day 10 after paclitaxel 2 mg/kg i.p. days 1-5, mice, vs saline) was “inhibited the expression of paclitaxel-induced cold allodynia”.
